Laboratory results from US8071575B2, “Methods and compounds for the targeted delivery of agents to bone for interaction therewith” (priority 2007, dated 2011).

What was measured:
[1] = system: OVX rats; assay: Quantitative determination of lipid metabolism (total cholesterol, HDL, LDL) in rat serum; format: in vivo, Sprague-Dawley female rats
Experimental: (§1) Animals. Six month old, bilaterally ovariectomized (OVX) or sham operated Sprague-Dawley female rats (Harlan Laboratories, Indianapolis, Ind.) were maintained at the University of Louisville Research Resources Center at 22° C. with a 12-h light/dark cycle and ad libitum access to tap water and rodent chow (Purina Laboratory Rodent Diet 5001). All animal procedures were approved by the Institutional Animal Care and Use Committee, which is certified by the American Association for Accreditation of Laboratory Animal Care.
(§2) In vivo experiments were conducted in order to investigate the efficacy of compounds of the presently-disclosed subject matter. In all of the experiments, OVX and sham operated rats were randomly divided into groups of 5-7 animals. In all of the studies experimental groups included: i) Sham-operated control (euthanized six weeks post surgery as a pretreatment control), ii) OVX control (euthanized six weeks post surgery as a pretreatment control), iii) Sham control receiving vehicle, iv) OVX control receiving vehicle, v) OVX receiving 17-ethinyl estradiol (equimolar concentration with a selected test compound), vi) OVX receiving alendronate (1.6 mg/kg), and vii) OVX receiving parathyroid hormone 1-34 (PTH) ([…]). 17-ethinyl estradiol (17 EE) is a free estrogenic agent known to be orally active, and can serve as an example of an anti-catabolic agent. Alendronate (Alen) is a bisphosphonate that is currently used to treat osteoporosis (e.g., Fosamax®, Merck & Co., Inc,), and can serve as an example of an anti-catabolic agent. Parathyroid hormone 1-34 (PTH) is an agent that can serve as an example of an anabolic agent. All compounds and vehicle (1% DMSO in corn oil) were administered three times per week orally by gavage except for PTH which was administered via a subcutaneous injection in a volume of 0.5 ml/kg body mass thrice per week. Compound administration was initiated 6 weeks following surgery and lasted for 6 weeks (18 doses total).
(§3) Following 6 weeks of treatment, blood was obtained from each animal via cardiac puncture following an overnight fast and animals were subsequently euthanized via carbon dioxide asphyxiation. Blood was centrifuged immediately and the obtained serum samples were aliquoted and stored at −70° C. prior to analysis. Uteri were removed and fresh weights were obtained. Uterine masses were normalized to body mass at the end of the experiment. The left and right femora and left and right tibiae were subsequently collected from each animal, cleaned of soft tissue, and stored in saline at 4° C. prior to analysis.
Quantitative Determination of Lipid Metabolism (Total Cholesterol HDL, and LDL) in Rat Serum. Total cholesterol, high-density lipoprotein (HDL), and low-density lipoprotein (LDL) were quantitatively determined in the serum of rats in order to evaluate the extraosseous effects of estrogen treatment on lipid metabolism. Commercially available kits from Wako Diagnostics (Richmond, Va.) were used for the evaluations as recommended by the manufacturer.

[2] = system: OVX rats; assay: Femoral density via Archimedes' Principle (whole bone); format: in vivo, Sprague-Dawley female rats; details: OVX rats, three times per week for 6 weeks
Experimental: as §1, §2
(§4) Compounds of the presently-disclosed subject matter were orally administered to OVX rats at various doses. As indicated above all BTE's were administered three times per week for 6 weeks.
as §3
Femoral Density via Archimedes' Principle. Right femora were submerged in distilled water and fully hydrated under a vacuum for 1 hr. Subsequently, the mass of each hydrated femur was obtained in air and when submerged in water. Densities were determined using Archimedes' Principle according to the following formula: density=[mass of hydrated femur/(mass of hydrated femur−mass of hydrated femur submerged in water)]×density of distilled water at a given temperature (See Keenan, et al. Comparison of bone density measurement techniques: DXA and Archimedes' principle. J Bone Miner Res 1997; 12:1903-7.). The obtained density measurements were associated with whole bone.

[3] = system: OVX rats; assay: Regional femoral density via Archimedes' Principle; format: in vivo, Sprague-Dawley female rats; details: three times per week for 6 weeks
Experimental: as §1, §2, §4
Following 6 weeks of treatment, blood was obtained from each animal via cardiac puncture following an overnight fast and animals were subsequently euthanized via carbon dioxide asphyxiation. […]
Regional Femoral Density via Archimedes' Principle. […] Briefly, each femur was measured with a Cen-Tech Digital Caliper and a cut was made from each end at 20% of the length of the femur plus half the width of the blade. Subsequently, the bone marrow was washed out of the femoral diaphysis and the Archimedes density for each of the three femoral regions was determined as described above.

[4] = system: OVX rats; assay: Volume fraction, ex vivo micro-computed tomography of tibia; format: in vivo, Sprague-Dawley female rats; details: present-tense example, no data or figure
Experimental: as §1, §2, §4, §3
Volume Fraction—Ex vivo micro-computed tomography (μCT). Volume fraction is a representative value for the amount of bone that occupies a given volume or space. High resolution image data were collected using a customized micro-CT system (ACTIS 150/225 system, BIR Inc., Lincolnshire, Ill.). The metaphysis of each right tibia was scanned over a three millimeter range and three-dimensional images were reconstructed. Data were subsequently processed to reveal the volume fraction (BV/TV) occupied by trabecular (cancellous) bone tissue, cortical bone tissue, and whole bone tissue. The resulting data provides information regarding the density of whole bone, cortical bone, and trabecular bone.

[5] = system: OVX rats; assay: Bone mechanical competence indentation test; format: in vivo, Sprague-Dawley female rats; details: present-tense example, no data or figure
Experimental: as §1, §2, §4, §3
Bone Mechanical Competence Indentation Test. After sacrifice, the left tibiae were trimmed to expose the cancellous bone of the proximal tibial metaphysis and an indentation test was performed by advancing a flat-tipped cylindrical post (1.5 mm diameter) axially into the cut surface to measure the compressive strength of the cancellous bone structure.

[6] = system: ICR Swiss mice; assay: Stimulation of periosteal bone formation in a mouse calvarial injection model; format: in vivo; details: present-tense example, no data or figure
Experimental: Stimulation of Periosteal Bone Formation in a Mouse Calvarial Injection Model. The anabolic (bone formation) of compounds of the presently-disclosed subject matter are evaluated in the mouse calvarial injection model. Briefly, 4-week-old ICR Swiss mice are injected subcutaneously over the surface of the calvariae with compounds of the presently-disclosed subject matter at concentrations of 0, 1, 3, and 10 mg/kg/day for 5 days (twice a day). Microtubule inhibitor TN-16 (5 mg/kg/day for 2 days, twice a day) are used as a positive control. Mice are sacrificed two weeks after the injections are completed. Dissected calvarial samples are fixed in 10% phosphate-buffered formalin for 2 days, decalcified in 10% EDTA for 2 weeks and then embedded in paraffin. Histological sections are cut and stained with H&E and orange G. New woven bone formation (new bone area) is quantified by histomorphometry using the OsteoMeasure system (OsteoMetrics Inc., Atlanta, Ga.).

Row | SMILES | lipid metabolism (total cholesterol, HDL, LDL in serum) ([1]; present-tense example, no data or figure) | whole bone density (right femora) ([2]; oral 3000 μg/kg) | regional bone density (proximal and distal left femur) ([3]; oral 3000 μg/kg) | volume fraction (BV/TV) of trabecular, cortical and whole bone tissue [4] | bone strength (indentation test) [5] | new bone area (calvarial injection model) [6] | lipid metabolism (total cholesterol, HDL, LDL in serum) ([1]; rat, in vivo) | whole bone density (right femora) ([2]; oral 10, 100, or 1000 μg/kg) | regional bone density (left femur) ([3]; oral 10, 100, or 1000 μg/kg)
1 | COc1ccc(NC(=O)CCC(=O)OC2CCC3C4CCC5=CC(=O)CCC5(C)C4CCC23C)c(O)c1C(N)=O (stereo not drawn) [Formula 33] | limited or no effect | higher than that of the OVX animals | higher than that of the OVX animals | increase bone density | increase bone strength | increase new bone area | – | – | –
2 | COc1ccc(NC(=O)COCCOCCNC(=O)CCOC2CCC3C4CCc5cc(O)ccc5C4CCC23C)c(O)c1C(N)=O (stereo not drawn) [Formula 123] | – | – | – | increase bone density | increase bone strength | affect new bone area | limited or no effect | in the same ranges as those animals receiving 17-ethinyl estradiol (17 EE), Alendronate (Alen), or Parathyroid hormone 1-34 (PTH) | increased regional bone densities, as compared to the OVX animals
